From US20250243174A1, “ANTITUMORAL COMPOUNDS” (PHARMA MAR, S.A., priority 2021, published 2025) come the findings set out here.

The test system of data set [1] is HT29. The experiment in a line: SRB colorimetric cytotoxicity assay, HT29. The format is cell-based. Particulars: Homo sapiens, HT-29, 72 h, read-out: GI50 (M) HT29. An excerpt:
(§1) The aim of this assay is to evaluate the in vitro cytostatic (ability to delay or arrest tumor cell growth) or cytotoxic (ability to kill tumor cells) activity of the samples being tested.
(§2) A colorimetric assay, using sulforhodamine B (SRB) reaction has been adapted to provide a quantitative measurement of cell growth and viability (using the technique developed by Skehan et al., J. Natl. Cancer Inst. 1990 and following the protocol detailed in V. Vichai and K. Kirtikara (2006) Nature Protoc. 1, 1112-1116.)
(§3) This form of assay employs 96-well cell culture microplates. All the cell lines used in this study were obtained from the American Type Culture Collection (ATCC), unless otherwise indicated, and derive from different types of human cancer.
(§4) Cells were maintained in Dulbecco's Modified Eagle Medium (DMEM) (for A549, HT-29 and MDA-MB-231) or RPMI (for PSN-1) supplemented with 10% Fetal Bovine Serum (FBS), 2 mM L-glutamine, 100 U/mL penicillin and 100 U/mL streptomycin at 37° C., 5% CO2 and 98% humidity. For the experiments, cells were harvested from subconfluent cultures using trypsinization and resuspended in fresh medium before counting and plating.
(§5) Cells were seeded in 96 well microtiter plates, at 5×10^3 cells per well in aliquots of 150 μL, and allowed to attach to the plate surface for 18 hours (overnight) in drug free medium. After that, one control (untreated) plate of each cell line was fixed (as described below) and used for time zero reference value. Culture plates were then treated with test compounds (50 μL aliquots of 4× concentrated compound stock solutions made in complete culture medium) using ten serial dilutions (concentrations ranging from […]) and triplicate cultures (final concentration of DMSO being 1%). After 72 hours treatment, the antitumor effect was measured by using the SRB methodology: Briefly, cells were washed twice with PBS, fixed for 15 min in 1% glutaraldehyde solution at room temperature, rinsed twice in PBS, and stained in 0.4% SRB solution for 30 min at room temperature. Cells were then rinsed several times with 1% acetic acid solution and air-dried at room temperature. SRB was then extracted in 10 mM trizma base solution and the absorbance measured in an automated spectrophotometric plate reader at 490 nm. Effects on cell growth and survival were estimated by applying the NCI algorithm (Boyd M R and Paull K D. Drug Dev. Res. 1995, 34, 91-104).
(§6) Using the mean±SD of triplicates, a dose-response curve was automatically generated using nonlinear regression analysis to a 4-parameter logistic curve. Three reference parameters were calculated (NCI algorithm) by automatic interpolation: GI50=compound concentration that produces […] cell growth inhibition, as compared to control cultures.

In data set [2] the test system is H460 xenografts. The data set can be described thus: Comparative Example, in vivo H460 xenograft (PM050489). Further details: species or system mice. The settings on record: 0.08 mg/kg iv. The procedure:
H460 cells were maintained in vitro at 37° C. with 5% CO2 in Dulbecco's Modified Eagle's Medium (Sigma-Aldrich, Co). Culture cells were passaged every 3 to 5 days upon reaching confluence. Each animal was subcutaneously implanted (on the right flank using 26G needle and a 1 cc syringe) at 4-6 weeks of age with 5×10^6 H460 cells suspended in 0.05 mL of a solution consisting of 50% Matrigel (Corning Incorporated Life Sciences) and 50% medium without serum or antibiotics.
Antitumor activity of PM050489 was evaluated in one human tumor model, NSCLC (H460) xenografted in immunodepressed mice. All treatments were intravenously administered at their MTD.
When tumors reached ca. 150-200 mm^3, tumor bearing animals (N=10/group) were randomly allocated into the following treatment groups: • PM050489 (0.08 mg/kg) • Placebo
Treatments were intravenously administered once per week for 2 consecutive weeks (days 0 and 7).
Tumor dimensions and body weights were recorded 3 times per week starting from the first day of treatment (Day 0). Treatments producing >20% lethality and/or 20% net body weight loss were considered toxic. Tumor volume was calculated using the equation (a·b^2)/2, where a and b were the longest and shortest diameters, respectively. Animals were euthanized when their tumors reached ca. 2,000 mm^3 and/or severe necrosis was seen. Median, mean and SD were calculated for tumor volume on each measurement day.
Antitumor effect was calculated by using ΔT/ΔC (%) and tumor growth delay (TGD). ΔT/ΔC was defined as a percentage of the change in tumor volume for each treated (T) and placebo (C) group. ΔT/ΔC was calculated immediately before the 2nd dose and on the 4th week of the study. TGD was expressed as a percentage by which the treated group volume was delayed and calculated by applying [(Dt−Dc)/Dc]100, where […] were the median times in days for treated and control groups in attaining a specified volume, fixed as 1,000 mm^3.
Treatment tolerability was assessed by monitoring body weight evolution, clinical signs as well as evidences of local damage in the injection site.

Data set [3] is described as follows: MTD (Maximum Tolerated Dose) determination. The settings on record: Athymic Nude-Fox1 nu/nu, mouse, in vivo; iv, single dose; female athymic nude mice. The procedure: (§7) Female Athymic Nude-Fox1 nu/nu mice (Envigo) were utilized for all experiments. Animals (N=10/cage) were housed in individually ventilated cages (Sealsafe Plus®, Techniplast S.P.A.), on a 12-hour light-dark cycle at 21-23° C. and 40-60% humidity. Mice were allowed free access to irradiated standard rodent diet (Tecklad 2914C) and sterilized water. Animals were acclimated for five days prior to being individually tattoo-identified. Animal protocols were reviewed and approved according to the regional Institutional Animal Care and Use Committees.
(§8) Mice were randomly allocated into experimental groups and intravenously administered, once for the MTD (Maximum Tolerated Dose) determination or one administration a week during three consecutive weeks, for the MTMD (Maximum Tolerated Multiple Dose) determination study. The animals were administered with white formulation or with compound dissolved in the experimental formulation at different concentrations. The volume administered was always 10 mL/kg. Once administered, animals were monitored for clinical signs of systemic toxicity, changes in body weight and mortality up to 14 days after the administration.

For data set [4], the system named is PSN-1. The data set can be described thus: SRB colorimetric cytotoxicity assay, PSN-1. The class given is cell-based. Particulars: Homo sapiens, PSN1, 72 h, read-out: GI50 (M) PSN-1.
Excerpt: as §1, §2, §3, §4, §5, §6

Data set [5] concerns MDA-MB-231. The experiment in a line: SRB colorimetric cytotoxicity assay, MDA-MB-231. The format is cell-based. Particulars: Homo sapiens, MDA-MB-231, 72 h, read-out: GI50 (M) MDA-MB-231.
Excerpt: as §1, §2, §3, §4, §5, §6

Data set [6] relates to A549. The data set can be described thus: SRB colorimetric cytotoxicity assay, A549. The format is cell-based. The settings on record: Homo sapiens, A549, 72 h, read-out: GI50 (M) A549.
Excerpt: as §1, §2, §3, §4, §5, §6

A short description of data set [7]: MTMD (Maximum Tolerated Multiple Dose) determination. The class given is in vivo. The settings on record: iv, Q7dx3; female athymic nude mice. The method, then:
as §7, §8

`COC1=CC[C@@H]([C@@H](C)/C=C(C)/C=C\C=C/C(=O)N[C@H](C(=O)N/C=C\C[C@H](C/C=C(\C)Cl)OC(N)=O)C(C)(C)C)OC1=O` [PM050489, reference compound]: the GI50 (usually the concentration at which growth is held to half of that of the control) was 3.91e-11 M in data set [1], 1.9e-10 M in data set [4], 1.37e-10 M in data set [5] and 8.59e-11 M in data set [6]. Moreover, the “treatment tolerability” value in data set [2] is reported as “prematurely finished because of severe necrosis in the tumor masses and/or decreases in body weight values”. In data set [2] (days 0 and 7, Day 7), the “ΔT/ΔC (%) Day 7” value came to 103.5%. In data set [2] (tumor growth delay, target volume 1,000 mm^3), the “TGD (%)” value is recorded as 40.0%. In addition, in data set [3], the MTD – broadly, the highest dose tested that stayed within the study's limit of toxicity – at 14 days stood at 0.075 mg/kg. This molecule registered an MTMD in data set [7] of 0.075 mg/kg.
